{
  "source": "patent US9248149B2",
  "about": "“Methods for treating a neoplastic disease in a subject using inorganic selenium-containing compounds” (THE BOARD OF TRUSTEES OF THE LELAND STANFORD JUNIOR …, priority 2003, dated 2016)",
  "key": {"LAPC-4 cells [1]": {"system": "LAPC-4 cells", "test": "GSH-reductase recycling assay, intracellular GSH and GSSG", "assay_type": "cell-based, human", "conditions": "10 μM selenite", "protocol": "Determination of Intracellular GSH and GSSG Content. The determination of intracellular GSH and GSSG content following exposure to selenite was performed using the GSH-reductase recycling assay (Vandeputte et al., Cell Biol Toxicol, 10: 415-421 (1994)). This assay measures the reaction of GSH with 5,5′-dithiobis(2-nitrobenzoic acid) (DTNB). Briefly, cells (floating and adherent) were rinsed in cold stock buffer (143 mM sodium phosphate, 6.3 mM EDTA, pH7.4), and lysed by repeated freeze thawing in 130 μl of 10 mM HCl. Following lysis a 10 μl sample was removed and used for protein determination. Proteins were precipitated on ice for 15 min with 30 μl of 6.5% sulfosalicyclic acid and centrifuged for 15 min at 2000×g and 4° C. The supernatants were collected and stored at −80° C. until assayed. The 96-well plate assay was prepared by mixing 20 μl of sample or known GSH standard, 20 μl of stock buffer, 200 μl of reaction buffer (1 mM 5,5′-dithiobis(2-nitrobenzoic acid (DTNB) and 0.34 mM nicotinamide adenine dinucleotide phosphate (NADPH) in stock buffer), and 40 μl of GSH reductase (8.5 U/ml). The reaction was recorded kinetically at 30-sec intervals for 6 min at a wavelength of 405 nm GSSG was measured following GSH derivatization with 2-vinylpyridine and triethanolamine. GSSG was measured as described above using known GSSG standards. The concentration of GSH and GSSG was expressed as nmol/mg of protein."}, "[2]": {"system": "LAPC-4 prostate cancer cells", "test": "MTS cell proliferation assay", "assay_type": "cell-based, human", "conditions": "48 hours", "protocol": "(§1) Cell Cultures and Treatments. LAPC-4 prostate cancer cells (provided by Dr. Charles Sawyers, UCLA) were cultured in phenol red free RPMI 1640 (Life Technologies, Rockville, Md.) supplemented with 10% fetal bovine serum (Gemini Bio-Products, Woodland, Calif.) at 37° C. in a humidified atmosphere with 5% CO2.\nCell proliferation assay. Cells were seeded in 96-well plates (10,000 cells/well) and treated with selenite for 48 hours. Cell survival was assayed using the CellTiter 96 AQueous One Solution Cell Proliferation Assay (Promega, Madison, Wis.). The MTS tetrazolium solution was added directly to the wells, incubated at 37° C. for 3 hours, and then the absorbance was read at 490 nm with a 96 well plate reader (Vmax Kinetic Microplate Reader, Molecular Devices, Sunnyvale, Calif.)."}, "[3]": {"system": "LAPC-4 prostate cancer cells", "test": "Apoptosis as sub-G1 fraction by FACS of PI-stained cells", "assay_type": "cell-based, human", "conditions": "for percentage of sub-G1 cells (apoptosis): 48 hours", "protocol": "as §1\nDetection of Apoptosis. Flow cytometry analysis (FACS) analysis of propidium iodide (PI)-stained cells was used to quantify the percentage of apoptotic cells as the fraction of cells with a hypodiploid amount of DNA (Sub-G1). Cells were fixed and permeabilized with 100% ice-cold ethanol at 4° C. overnight. The cells were resuspended in 500 μl of buffer (phosphate buffered saline (PBS), 5 mM EDTA) and incubated with 200 μg/ml RNase A for 30 min at room temperature and then 50 μg/ml PI for 10 min at room temperature. The cell cycle distribution was analyzed using Facstar flow cytometry (Becton-Dickinson, San Jose, Calif.). Cleavage of Caspase-3 as a marker of caspase-mediated apoptosis was also detected by immunoblot analysis (see below)."}, "[4]": {"system": "prostate cancer cells (E-CA-3)", "test": "GSH-reductase recycling assay, GSH:GSSG ratio", "assay_type": "cell-based, human", "conditions": "25 μM selenite, 48 hours", "text": "(§2) Primary prostate epithelial cell strains from normal prostate (PZ) and prostate cancer (CA) tissue were provided by Dr. Donna Peehl (Stanford University) using well established methods she has previously described (Peehl, Human prostatic epithelial cells. In: Culture of Epithelial Cells, 2nd edition, Freshney, R. I. and Freshney, M. G. (eds.), Wiley-Liss, Inc., N.Y., 171-194 (2002)). Three matched pairs of normal and cancer cell strains were available for study (E-PZ/CA-1, E-PZ/CA-2, and E-PZ/CA-3). Normal cell strains were obtained from a region of the prostate peripheral zone not involved in cancer. E-CA-1, E-CA-2, and E-CA-3 cell strains were derived from prostate carcinomas. Cells were treated at 50-70% confluence.\n(§3) Determination of Intracellular GSH and GSSG Content. […] The 96-well plate assay was prepared by mixing 20 μl of sample or known GSH standard, 20 μl of stock buffer, 200 μl of reaction buffer (1 mM 5,5′-dithiobis(2-nitrobenzoic acid (DTNB) and 0.34 mM nicotinamide adenine dinucleotide phosphate (NADPH) in stock buffer), and 40 μl of GSH reductase (8.5 U/ml). The reaction was recorded kinetically at 30-sec intervals for 6 min at a wavelength of 405 nm GSSG was measured following GSH derivatization with 2-vinylpyridine and triethanolamine. GSSG was measured as described above using known GSSG standards. The concentration of GSH and GSSG was expressed as nmol/mg of protein."}, "[5]": {"system": "normal prostate cells (E-PZ-3)", "test": "GSH-reductase recycling assay, GSH:GSSG ratio", "assay_type": "cell-based, human", "conditions": "25 μM selenite, 48 hours", "text": "as §2, §3"}, "[6]": {"system": "DU 145 prostate cancer cells", "test": "GSH-reductase recycling assay, GSH:GSSG ratio", "assay_type": "cell-based", "conditions": "10 μM selenite, basal level 146.4±14.0", "protocol": "DU 145 prostate cancer cells (American Type Culture Collection, Rockville, Md.) were cultured in RPMI 1640 (+phenol red) supplemented with 10% fetal bovine serum. When the cells reached 50% confluence the media was replaced and selenite was added at the noted concentrations.\nas §3, with “Content. The determination of intracellular GSH and GSSG content following exposure to selenite was performed using the GSH-reductase recycling assay (Vandeputte et al., Cell Biol Toxicol, 10: 415-421 (1994)). This assay measures the reaction of GSH with 5,5′-dithiobis(2-nitrobenzoic acid) (DTNB).” for “Content.”"}, "LAPC-4 cells [7]": {"system": "LAPC-4 cells", "test": "Clonogenic survival assay", "assay_type": "cell-based, human", "protocol": "(§4) Clonogenic Survival Assays. In Examples 1-4 below, LAPC-4 cells were treated with or without selenite for 6 hours prior to receiving 2 Gy of ionizing radiation. In other Examples, LAPC-4 and DU 145 cells were treated with 10 μM selenite for 6 or 12 hours treatment with 2 or 5 Gy of γ-irradiation.\n(§5) Following irradiation cells were trypsinized, counted, and seeded in triplicate into 60 mm dishes. At least two dilutions of cells were used for each treatment group. Plated cells were allowed to grow for 14 or 17 days before being stained with 0.25% crystal violet in 75% ethanol. Resulting colonies with greater than 50 cells were scored. The surviving fraction was calculated as the plating efficiency of treated cells divided by the plating efficiency of untreated cells. SF2 is the survival fraction of exponentially growing cells that were irradiated at the clinically relevant dose of 2 Gy. The SF2 enhancement ratio (SF2 ER) is defined here as the SF2 without treatment divided by the SF2 for cells treated with selenite."}, "DU 145 cells": {"system": "DU 145 cells", "test": "Clonogenic survival assay", "assay_type": "cell-based", "conditions": "for SF2: normalized for killing from selenite alone, radiation alone 0.554; for surviving fraction, selenite alone: assessed at 17 days", "protocol": "as §4, §5"}, "LAPC-4 tumors": {"system": "LAPC-4 tumors", "test": "Selenite and radiation combination therapy in mice with LAPC-4 tumors", "assay_type": "in vivo"}},
  "data": [
    {"smiles": "O=[Se](O)O", "note": "[selenite, Sodium selenite]", "values": [
      {"measurement": "decrease of GSH:GSSG ratio", "setting": "LAPC-4 cells [1]; 6 hours", "result": 88.3, "unit": "%"},
      {"measurement": "GSH:GSSG ratio", "setting": "LAPC-4 cells [1]; 6 hours, untreated 129.4±13.6", "result": "15.1±2.3"},
      {"measurement": "total GSH level", "setting": "LAPC-4 cells [1]; 48 hours, basal level 52.1±5.6", "result": "11.8 ± 2.1", "unit": "nmol/mg"},
      {"measurement": "Cell proliferation", "setting": "[2]; 10 μM selenite", "result": "53.3 % of control"},
      {"measurement": "Cell proliferation", "setting": "[2]; 25 μM selenite", "result": "33.4 % of control"},
      {"measurement": "percentage of sub-G1 cells (apoptosis)", "setting": "[3]; 10 μM selenite", "result": 14.5, "unit": "%"},
      {"measurement": "percentage of sub-G1 cells (apoptosis)", "setting": "[3]; 25 μM selenite", "result": 26.1, "unit": "%"},
      {"measurement": "decrease of GSH:GSSG ratio", "setting": "[4]", "result": 65.9, "unit": "%"},
      {"measurement": "decrease of GSH:GSSG ratio", "setting": "[5]", "result": 41.1, "unit": "%"},
      {"measurement": "GSH:GSSG ratio", "setting": "[6]; 6 hours", "result": "57.5±13.8"},
      {"measurement": "GSH:GSSG ratio", "setting": "[6]; 12 hours", "result": "5.7±1.8"},
      {"measurement": "SF2", "setting": "LAPC-4 cells [7]; 10 μM selenite 6 hr pre 2 Gy γ-irradiation, normalized for killing from selenite alone, radiation alone 0.244", "result": 0.056},
      {"measurement": "SF2 ER", "setting": "LAPC-4 cells [7]; 10 μM selenite 6 hr pre radiation, SF2 without treatment divided by SF2 with selenite", "result": 4.36},
      {"measurement": "surviving fraction, selenite alone", "setting": "LAPC-4 cells [7]; 10 μM selenite for 6 hours, no radiation", "result": "0.431±0.021"},
      {"measurement": "SF2", "setting": "DU 145 cells; 10 μM selenite 6 hr pre 2 Gy γ-irradiation", "result": 0.343},
      {"measurement": "SF2 ER", "setting": "DU 145 cells; 10 μM selenite 6 hr pre radiation", "result": 1.62},
      {"measurement": "SF2", "setting": "DU 145 cells; 10 μM selenite 12 hr pre 2 Gy γ-irradiation", "result": 0.199},
      {"measurement": "SF2 ER", "setting": "DU 145 cells; 10 μM selenite 12 hr pre radiation", "result": 2.78},
      {"measurement": "surviving fraction, selenite alone", "setting": "DU 145 cells; 10 μM selenite for 6 hours", "result": 0.941},
      {"measurement": "surviving fraction, selenite alone", "setting": "DU 145 cells; 10 μM selenite for 12 hours", "result": 0.409},
      {"measurement": "tolerability", "setting": "LAPC-4 tumors; selenite treated mice", "result": "very well tolerated"},
      {"measurement": "weight loss", "setting": "LAPC-4 tumors; selenite treated mice compared with local tumor irradiation alone", "result": "no significant weight loss"}
    ]},
    {"smiles": "CCCCS(=N)(=O)CCC(N)C(=O)O", "note": "(centres unmarked) [BSO, buthionine sulfoximine, reference compound]", "values": [
      {"measurement": "induction of apoptosis", "setting": "[3]; BSO 500 μM for 72 hrs", "result": "did not induce significant apoptosis"}
    ]}
  ]
}
